Measured values published in patent US20240327459A1, “PEPTIDE FRAGMENTS FOR TREATMENT OF DIABETES” (Follicum AB, priority 2018, published 2024).
Entries after “also recorded” stand apart in the source; their conditions may differ.

Tests used:
mouse pancreatic islets = experiment: Insulin secretion from isolated mouse pancreatic islets (Examples 5 and 7); type: cell-based; conditions: 60 min
Procedure: Mouse pancreatic islets were isolated from 8-week old C57BL/6J male mice (Taconic). Mice were sacrificed by an overdose of isoflurane and cervical dislocation. 3 ml of 0.9 U/ml collagenase P was injected into the pancreatic duct to inflate the pancreas. The Pancreas was then removed and collagen digested for 19 min at 37° C. The samples Were vigorously shaken to disrupt the tissue. The digest was transferred into ice cold Hank's Balanced Salt Solution (HBSS) with Ca^2+ and Mg^2+. The suspension was allowed to sit for 10 min to allow the islet to sink, and the islets were washed in fresh HBSS four times. The islets were then hand-picked and sorted according to size. Islets (n=3 per well in a 96 well plate) were pre-incubated in KRB buffer during 10 min 37° C., pH 7.4, supplemented with 10 mM HEPES, 0.1% bovine serum albumin. After pre-incubation, the buffer was changed and islets were incubated at different test conditions in new KRB buffer with 0.1% bovine serum albumin (non-treated ctrl, FOL-005 peptide, or GLP-1) for 60 min at 37° C. Immediately after incubation, an aliquot of the buffer was removed and frozen for subsequent assay of insulin.
Mouse pancreatic islets were isolated from 8-week old C57BL/6J male mice as described under example 5. The islets were then hand-picked and sorted according to size. Islets (n=5 per well in a 96 well plate) were pre-incubated in 200 μl KRB buffer during 10 min 37° C., pH 7.4, supplemented with 10 mM HEPES, 0.1% bovine serum albumin. Following pre-incubation, the buffer was changed and islets were incubated in different test conditions in new KRB buffer with 0.1% bovine serum albumin (non-treated ctrl, FOL-014 peptide, and GLP-1) for 60 min at 37° C. Immediately after incubation, an aliquot of the buffer was removed and frozen for subsequent assay of insulin.

INS-1E cells = experiment: Insulin secreting capacity after 72 hours of glucotoxic conditions (Examples 19, 22); type: cell-based, rat; conditions: Example 19, 20 mM glucose 72 hours with peptide, then 16.7 mM glucose 1 h
Procedure: To investigate the β-cell protective effect of FOL-056, we subjected INS-1E to cytotoxic levels of glucose for 72 hours. Rat INS-1E cells were seeded in 96-well plates (2×10^3 cells/well) in cRPMI medium. Following 72 hours of incubation, the medium was changed to RPMI containing 20 mM glucose with or without FOL-056 or FOL-014 and were cultured at 37° C. during an additional 72 hours to induce glucotoxicity. RPMI containing 5 mM glucose was included as a low glucose control. Following 72 hours, the medium was removed and the INS-1E cells were equilibrated in Krebs-Ringer bicarbonate buffer (KREB), pH 7.4, (supplemented with 10 mM HEPES, 0.1% bovine serum albumin and 2.8 mM glucose) for 2 hours. After equilibration, the buffer was changed and the INS-1E cells were incubated in KREBs containing 16.7 mM glucose […] during 1 h. Immediately after incubation, an aliquot of the buffer was removed and frozen for subsequent assay of insulin content.
To investigate the β-cell protective effect of several novel peptide fragments derived from FOL-005 and FOL-014, INS-1 cells were subjected to cytotoxic levels of glucose for 72 hours. […] In order to correct for the variance between experiments, all values were normalized to, and expressed as percentage of the average value of the high glucose control in the individual experiments. […]

KPLAEIDSIELSYGIK (MISC_FEATURE - peptide, FOL-014)
insulin secretion (mouse pancreatic islets; Example 7, 0.6 μM): did not affect insulin secretion; also recorded: had no effect on insulin secretion
insulin secretion (mouse pancreatic islets; Example 7, 6 μM, vs unstimulated control islets): secreted more insulin compared to unstimulated control islets
insulin secreting ability after glucotoxic conditions (INS-1E cells): significantly improved the insulin secreting ability of the β-cells as compared with high glucose media alone
